# The source made the active and inactive calls. The calls are words filed in the database; no cut-off is given here.
# Assays:
# H22 [1] = test: Antitumor activity against mouse H22 cells allografted in ICR mouse assessed as reduction in tumor weight at 8 mg/kg, iv administered every two days for 21 days after 7 days of tumor implantation; type: functional; set-up: scale not given: the % may be the effect or the level left; details: time 21 day
# [2] = Toxicity in ICR mouse allografted with mouse H22 cells assessed as reduction in body weight at 8 mg/kg, iv administered every two days for 21 days after 7 days of tumor implantation measured every two days; type: organism-based; details: in vivo, 504 h, time 21 day
# K562 [3] = test: Antiproliferative activity against human K562 cells assessed as reduction in cell viability incubated for 72 hrs by MTT assay; type: functional, cell-based; details: K562, 72 h
# MDA-MB-231 [4] = test: Antiproliferative activity against human MDA-MB-231 cells assessed as reduction in cell viability incubated for 72 hrs by MTT assay; type: functional, cell-based; details: MDA-MB-231, 72 h
# SMMC-7721 [5] = test: Antiproliferative activity against human […] cells assessed as reduction in cell viability incubated for 72 hrs by MTT assay; type: functional, cell-based; details: SMMC-7721, 72 h
# MCF7 [6] = test: Antiproliferative activity against human MCF7 cells assessed as reduction in cell viability incubated for 72 hrs by MTT assay; type: functional, cell-based; details: MCF7, 72 h
# SW480 = test: Antiproliferative activity against human SW480 cells assessed as reduction in cell viability incubated for 72 hrs by MTT assay; type: functional, cell-based; details: SW480, 72 h
# MGC-803 = test: Antiproliferative activity against human MGC-803 cells assessed as reduction in cell viability incubated for 72 hrs by MTT assay; type: functional, cell-based; details: MGC-803, 72 h
# HeLa = test: Antiproliferative activity against human HeLa cells assessed as reduction in cell viability incubated for 72 hrs by MTT assay; type: functional, cell-based
# [7] = Antiproliferative activity against human U-87 MG cells assessed as reduction in cell viability incubated for 72 hrs by MTT assay; type: functional, cell-based, U-87MG ATCC
# H22 [8] = test: Antiproliferative activity against mouse H22 cells assessed as reduction in cell viability incubated for 72 hrs by MTT assay; type: functional, cell-based; details: H22, 72 h
# [9] = Cytotoxicity against human L02 cells assessed as reduction in cell viability incubated for 72 hrs by MTT assay; type: toxicity, cell-based
# [10] = Selectivity index, ratio of IC50 for human L02 cells to IC50 for human SMMC-7721 cells; type: toxicity; details: L02 cells and SMMC-7721 cells, read-out: Ratio IC50
# H22 [11] = test: Antitumor activity against mouse H22 cells allografted in ICR mouse assessed as reduction in tumor volume at 20 mg/kg, iv administered once a day for 21 days after 7 days of tumor implantation measured every two days; type: functional, organism-based; details: time 21.0 day
# H22 [12] = test: Antitumor activity against mouse H22 cells allografted in ICR mouse assessed as reduction in tumor weight at 20 mg/kg, iv administered once a day for 21 days after 7 days of tumor implantation; type: functional; set-up: scale not given: the % may be the effect or the level left; details: time 21 day
# [13] = Toxicity in ICR mouse allografted with mouse H22 cells assessed as change in body weight at 20 mg/kg, iv administered once a day for 21 days after 7 days of tumor implantation measured every two days; type: organism-based; details: in vivo, 504 h, time 21 day
# K562 [14] = test: Potency index, ratio of IC50 for oridonin to IC50 for test compound for antiproliferative activity against K562 cells; type: functional, Homo sapiens
# MDA-MB-231 [15] = test: Potency index, ratio of IC50 for oridonin to IC50 for test compound for antiproliferative activity against MDA-MB-231 cells; type: functional, Homo sapiens
# SMMC-7721 [16] = test: Potency index, ratio of IC50 for oridonin to IC50 for test compound for antiproliferative activity against SMMC-7721 cells; type: functional, Homo sapiens
# MCF7 [17] = test: Potency index, ratio of IC50 for oridonin to IC50 for test compound for antiproliferative activity against MCF7 cells; type: functional, Homo sapiens
IC50 (K562 [3]),IC50 (MDA-MB-231 [4]),IC50 (SMMC-7721 [5]),IC50 (MCF7 [6]),IC50 (SW480),IC50 (MGC-803),IC50 (HeLa),Compound,Activity (H22 [1]),Activity [2],IC50 [7],IC50 (H22 [8]),IC50 at 72 h [9],selectivity ratio [10],Activity (H22 [11]),Activity (H22 [12]),Activity [13],Ratio IC50 (K562 [14]),Ratio IC50 (MDA-MB-231 [15]),Ratio IC50 (SMMC-7721 [16]),Ratio IC50 (MCF7 [17])
,,,,,,,CC(=O)O[C@H]1C(=O)[C@@]2(C)[C@H]([C@H](OC(=O)c3ccccc3)[C@]3(O)C[C@H](OC(=O)[C@H](O)[C@@H](NC(=O)c4ccccc4)c4ccccc4)C(C)=C1C3(C)C)[C@]1(OC(C)=O)CO[C@@H]1C[C@@H]2O [PACLITAXEL],90.39%,Toxic,,,,,,,,,,,
210 nM,640 nM,350 nM,1310 nM,1110 nM,1150 nM,970 nM,C=C1C(=O)[C@]23[C@H](OC(=O)/C=C/c4ccncc4)[C@H]1CC[C@H]2[C@]12C=CCC(C)(C)[C@H]1[C@H](O)[C@@]3(O)OC2,,,1160 nM,360 nM,6230 nM,17.7,Active,56.76%,Non-Toxic,,,,
990 nM,1670 nM,2090 nM,1300 nM,,,,C=C1C(=O)[C@@]23C(=O)C[C@@H]4C(C)(C)CCC[C@@]4(COC(C)=O)[C@@H]2CC[C@@H]1[C@H]3OC(C)=O,,,,,,,,,,4,6.9,6.2,8.5
340 nM,720 nM,770 nM,710 nM,800 nM,960 nM,940 nM,C=C1C(=O)[C@]23[C@H](OC(=O)/C=C/c4ccncc4)[C@H]1CC[C@H]2[C@]12CCCC(C)(C)[C@H]1C[C@@]3(O)OC2,,,900 nM,780 nM,5240 nM,6.79,Active,52.34%,Non-Toxic,,,,

# From ChEMBL document CHEMBL5154722, “Identification of new potent anticancer derivatives through simplifying the core structure and modification on their 14- hydroxyl group from oridonin” (Eur J Med Chem, 2022)
